One test addresses T1, tyrosine kinase (Homo sapiens, UniProt P14679).
T1 construct: endogenous in cells; host or cells: human melanocytes (cultured)
As to the kind of experiment: Tyrosine kinase (tyrosinase) activity in human melanocytes, L-Dopamine substrate, absorbance at 475 nm. In kind it is cell-based, humains. To be noted: hydroquinone 1 µg/mL (positive control), 72 h; témoin 0.044 ± 0.002. The procedure: Les mélanocytes humains sont ensemencés à la densité de 50 000 cellules/cm^2 dans des plaques multipuits. Les cellules sont incubées à 37°C en atmosphère humide contenant 5% (v/v) de CO2. Le milieu de culture est le MCDB 153 supplémenté par l'EGF (5 ng/mL) (Sigma), l'insuline (5 µg/mL)(Sigma), l'hydrocortisone (5 ng/mL)(Sigma),du sérum de veau foetal (SVF) à 5 % (v/v)( Gibco). Le milieu de culture est remplacé après 24 heures de culture et supplémenté par des antibiotiques (Peni-Strepto)(Gibco) à 1% (V/v) contenant les différentes concentrations d'un ester de tocophéryle avec un acide gras mono ou polyinsaturé ( 1, 10 et 100 µg/mL).
Une série « témoin positif» est constituée de cellules traitées à l'hydroquinone à 1 µg/mL.
Les cellules sont incubées pendant 72 heures à 37°C en atmosphère humide contenant 5% (v/v) de CO2. A la fin de la période d'incubation, le milieu de culture est prélevé et la couche cellulaire rincée deux fois avec du PBS. 450 µL de Triton X100 à 1% (v/v) dans le PBS sont ajouté dans chaque puits. On agite pendant 10 minutes puis on ajoute 50 µL de L-Dopamine à 10 mM dans du PBS sans Ca^++ ni Mg ^++
On laisse incuber pendant 1 heure à 37°C à l'abri de la lumière, puis on mesure l'absorption à 475 nm au spectrophotomètre. Tableau 1

Test [1] has as its system fibroblastes de derme humain. As to the kind of experiment: Mitochondrial activity of human dermal fibroblasts (rhodamine 123 fluorescence, semi-quantitative score). To be noted: antimycine 0,5 µM (positive control), 72 h. The class given is cell-based. How it is done:
Les fibroblastes de derme humain sont ensemencées à la densité de 5000 cellules/cm^2 dans 500 µl de milieu IMDM supplémenté par du SVF 10% pendant 24 heures en atmosphère humide contenant 5% (v/v) de CO2
Après 24 heures, les cellules sont mises en contact avec les différentes concentrations d'un ester de tocophéryle avec un acide gras mono ou polyinsaturé ( 10, 50 et 100 µg/ml).
Une série « témoin positif» est constituée de cellules traitées à l'antimycine à 0,5 µM.
Principe : L'incorporation cellulaire de rhodamine 123 est la conséquence de la variation du potentiel transmembranaire mitochondrial. L'évaluation semi-quantitative de la respiration mitochondriale est basée sur l'intensité de la fluorescence à l'intérieur de la cellule.
Les cellules sont incubées pendant 72 heures à 37°C en atmosphère humide contenant 5% (v/v) de CO2. A la fin de la période d'incubation, le milieu de culture est prélevé et la couche cellulaire rincée deux fois avec du milieu IMDM puis mise dans 500 µl de tampon phosphate pH 7.2 contenant 0.1 mg/ml de rhodamine 123.
On laisse incuber pendant 15 minutes à 37 °C, puis on mesure la fluorescence de façon semi-quantitative à l'aide d'une échelle de cotation.
Echelle de cotation (Intensité de fluorescence) : 0 : cytoplasme non fluorescent, 1 : faible; 2 : moyennement intense; 3 : Importante; 4 : Très importante, tout le cytoplasme est fluorescent.

T1 sequence (P14679 19-529): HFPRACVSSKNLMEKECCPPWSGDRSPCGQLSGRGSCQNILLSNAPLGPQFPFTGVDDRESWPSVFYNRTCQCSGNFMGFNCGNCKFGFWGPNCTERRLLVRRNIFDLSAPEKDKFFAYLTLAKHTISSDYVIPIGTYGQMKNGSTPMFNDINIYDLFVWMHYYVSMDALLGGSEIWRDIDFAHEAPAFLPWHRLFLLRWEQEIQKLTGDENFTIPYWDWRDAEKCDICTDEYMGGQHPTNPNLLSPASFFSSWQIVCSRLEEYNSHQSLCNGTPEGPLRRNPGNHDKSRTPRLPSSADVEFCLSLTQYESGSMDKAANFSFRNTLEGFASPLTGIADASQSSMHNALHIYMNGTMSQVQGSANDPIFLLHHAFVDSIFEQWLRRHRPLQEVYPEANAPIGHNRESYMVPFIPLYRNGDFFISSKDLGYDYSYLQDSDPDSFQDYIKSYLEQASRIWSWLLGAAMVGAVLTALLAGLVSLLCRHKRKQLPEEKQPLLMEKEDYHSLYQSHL

In the case of `Oc1ccc(O)cc1` [hydroquinone], on tyrosine kinase, the “moyenne absorbance à 475 nm” value turned out to be 0.024 ± 0.001.
Take antimycine: the “cellules, intensité de fluorescence 4 : Très importante, tout le cytoplasme est fluorescent” value in test [1] (témoin 12,3 ± 2,1) was 10,7 ± 2,5. Further, the “cellules, intensité de fluorescence 0 : cytoplasme non fluorescent” value in test [1] (témoin 17,7 ± 2,1) is 25,0 ± 4,1. The “cellules, intensité de fluorescence 1 : faible” value in test [1] (témoin 21,0 ± 2,9) is recorded as 16,3 ± 1,9. In addition, the “cellules, intensité de fluorescence 2 : moyennement intense” value in test [1] (témoin 25,0 ± 2,4) is given as 20,0 ± 1,6. In test [1] (témoin 25,7 ± 3,1), the “cellules, intensité de fluorescence 3 : Importante” value is reported as 13,3 ± 2,4.

Source of the values: patent EP1260509A1, “Uses of tocopherol esters” (Derma Developpement S.A.R.L., priority 2001, dated 2002).
